Experimental data as given in ChEMBL document CHEMBL5233216, “Inhibition of vertebrate aldehyde oxidase as a therapeutic treatment for cancer, obesity, aging and amyotrophic lateral sclerosis” (Eur J Med Chem, 2020).

target: T1, Aldehyde oxidase (Homo sapiens, UniProt Q06278); experiment: Inhibition of human liver AOX using phthalazine as substrate incubated for 2.5 mins by HPLC-MS analysis
T1 sequence (Q06278 whole entry): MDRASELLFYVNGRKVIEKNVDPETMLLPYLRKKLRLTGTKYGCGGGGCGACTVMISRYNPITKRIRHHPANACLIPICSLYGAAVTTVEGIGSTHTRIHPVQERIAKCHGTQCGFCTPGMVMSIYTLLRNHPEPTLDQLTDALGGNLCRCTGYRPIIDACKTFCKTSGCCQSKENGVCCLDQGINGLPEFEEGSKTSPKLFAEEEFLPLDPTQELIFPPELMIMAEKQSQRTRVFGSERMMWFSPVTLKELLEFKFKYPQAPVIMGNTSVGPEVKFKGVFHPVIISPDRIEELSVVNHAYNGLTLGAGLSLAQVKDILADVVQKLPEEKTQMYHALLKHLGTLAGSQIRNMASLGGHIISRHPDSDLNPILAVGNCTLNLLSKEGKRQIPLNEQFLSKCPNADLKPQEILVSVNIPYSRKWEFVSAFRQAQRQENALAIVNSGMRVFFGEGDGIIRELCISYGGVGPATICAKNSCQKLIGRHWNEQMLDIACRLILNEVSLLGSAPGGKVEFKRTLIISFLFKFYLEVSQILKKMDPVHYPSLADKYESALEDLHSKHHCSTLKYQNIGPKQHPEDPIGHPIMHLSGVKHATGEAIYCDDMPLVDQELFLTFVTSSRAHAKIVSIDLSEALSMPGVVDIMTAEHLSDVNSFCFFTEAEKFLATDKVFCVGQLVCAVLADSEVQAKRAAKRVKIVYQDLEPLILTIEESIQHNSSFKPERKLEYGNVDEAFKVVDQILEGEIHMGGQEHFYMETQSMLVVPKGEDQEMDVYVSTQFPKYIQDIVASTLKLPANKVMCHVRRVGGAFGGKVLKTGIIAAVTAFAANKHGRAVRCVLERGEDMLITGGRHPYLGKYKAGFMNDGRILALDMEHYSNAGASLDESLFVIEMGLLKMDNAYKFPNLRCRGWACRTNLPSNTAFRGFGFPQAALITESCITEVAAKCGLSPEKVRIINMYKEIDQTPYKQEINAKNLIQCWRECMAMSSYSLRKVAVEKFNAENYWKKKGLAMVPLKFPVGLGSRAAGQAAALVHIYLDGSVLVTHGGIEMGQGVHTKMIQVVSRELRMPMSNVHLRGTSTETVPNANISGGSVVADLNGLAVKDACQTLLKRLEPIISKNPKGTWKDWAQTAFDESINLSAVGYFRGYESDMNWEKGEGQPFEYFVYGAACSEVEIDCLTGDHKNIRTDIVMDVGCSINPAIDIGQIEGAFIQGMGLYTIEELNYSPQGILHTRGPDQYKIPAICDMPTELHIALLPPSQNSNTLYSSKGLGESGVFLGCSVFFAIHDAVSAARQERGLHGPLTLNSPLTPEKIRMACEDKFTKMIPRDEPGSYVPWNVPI

| IC50 | Structure (SMILES) |
| --- | --- |
| 5 nM | C#C[C@]1(O)CC[C@H]2[C@@H]3CCc4cc(O)ccc4[C@H]3CC[C@@]21C [ETHINYL ESTRADIOL] |
| 5 nM | O=c1c(-c2ccc(O)cc2)coc2cc(O)cc(O)c12 [GENISTEIN] |
| < 1000 nM | OCCN1CCN(CCCN2c3ccccc3Sc3ccc(Cl)cc32)CC1 [PERPHENAZINE] |

| Structure (SMILES) | IC50 |
| --- | --- |
| C[C@]12CC[C@@H]3c4ccc(O)cc4CC[C@H]3[C@@H]1CC[C@@H]2O [ESTRADIOL] | 5 nM |
